From ChEMBL document CHEMBL4020777, “Cytotoxic and apoptosis-inducing activities against human lung cancer cell lines of cassaine diterpenoids from the bark of Erythrophleum fordii” (Bioorg Med Chem Lett, 2017)

Tests used:
A549 [1] = assay: Cytotoxicity against human A549 cells by MTT assay; type: functional, cell-based
NCI-H1975 [2] = assay: Cytotoxicity against human NCI-H1975 cells by MTT assay; type: functional, cell-based
NCI-H1299 [3] = assay: Cytotoxicity against human NCI-H1299 cells by MTT assay; type: functional, cell-based
A549 [4] = assay: Induction of apoptosis in human A549 cells assessed as early apoptotic cells at 0.3 uM after 48 hrs by Annexin-V-FITC/propidium iodide staining based flow cytometric method (reference value: 1.04 to 2.73%); type: functional
A549 [5] = assay: Induction of apoptosis in human A549 cells assessed as late apoptotic cells at 0.3 uM after 48 hrs by Annexin-V-FITC/propidium iodide staining based flow cytometric method (reference value: 3.4 to 4.76%); type: functional
A549 [6] = assay: Induction of apoptosis in human A549 cells assessed as early apoptotic cells at 3 uM after 48 hrs by Annexin-V-FITC/propidium iodide staining based flow cytometric method (reference value: 1.04 to 2.73%); type: functional
A549 [7] = assay: Induction of apoptosis in human A549 cells assessed as late apoptotic cells at 3 uM after 48 hrs by Annexin-V-FITC/propidium iodide staining based flow cytometric method (reference value: 3.4 to 4.76%); type: functional
NCI-H1975 [8] = assay: Induction of apoptosis in human NCI-H1975 cells assessed as early apoptotic cells at 0.3 uM after 48 hrs by Annexin-V-FITC/propidium iodide staining based flow cytometric method (reference value: 2.5 to 3.56%); type: functional
NCI-H1975 [9] = assay: Induction of apoptosis in human NCI-H1975 cells assessed as late apoptotic cells at 0.3 uM after 48 hrs by Annexin-V-FITC/propidium iodide staining based flow cytometric method (reference value: 2.92 to 4.29%); type: functional
NCI-H1975 [10] = assay: Induction of apoptosis in human NCI-H1975 cells assessed as early apoptotic cells at 3 uM after 48 hrs by Annexin-V-FITC/propidium iodide staining based flow cytometric method (reference value: 2.5 to 3.56%); type: functional
NCI-H1975 [11] = assay: Induction of apoptosis in human NCI-H1975 cells assessed as late apoptotic cells at 3 uM after 48 hrs by Annexin-V-FITC/propidium iodide staining based flow cytometric method (reference value: 2.92 to 4.29%); type: functional
NCI-H1299 [12] = assay: Induction of apoptosis in human NCI-H1299 cells assessed as early apoptotic cells at 0.3 uM after 48 hrs by Annexin-V-FITC/propidium iodide staining based flow cytometric method (reference value: 1.91%); type: functional
NCI-H1299 [13] = assay: Induction of apoptosis in human NCI-H1299 cells assessed as late apoptotic cells at 0.3 uM after 48 hrs by Annexin-V-FITC/propidium iodide staining based flow cytometric method (reference value: 2.69%); type: functional
NCI-H1299 [14] = assay: Induction of apoptosis in human NCI-H1299 cells assessed as early apoptotic cells at 3 uM after 48 hrs by Annexin-V-FITC/propidium iodide staining based flow cytometric method (reference value: 1.91%); type: functional
NCI-H1299 [15] = assay: Induction of apoptosis in human NCI-H1299 cells assessed as late apoptotic cells at 3 uM after 48 hrs by Annexin-V-FITC/propidium iodide staining based flow cytometric method (reference value: 2.69%); type: functional
A549 [16] = assay: Induction of apoptosis in human A549 cells after 48 hrs by Annexin-V-FITC/propidium iodide staining based flow cytometric method; type: functional, cell-based
NCI-H1975 [17] = assay: Induction of apoptosis in human NCI-H1975 cells after 48 hrs by Annexin-V-FITC/propidium iodide staining based flow cytometric method; type: functional, cell-based
NCI-H1299 [18] = assay: Induction of apoptosis in human NCI-H1299 cells after 48 hrs by Annexin-V-FITC/propidium iodide staining based flow cytometric method; type: functional, cell-based
A549 [19] = assay: Induction of apoptosis in human A549 cells assessed as early apoptotic cells at 0.1 uM after 48 hrs by Annexin-V-FITC/propidium iodide staining based flow cytometric method (reference value: 1.04 to 2.73%); type: functional
A549 [20] = assay: Induction of apoptosis in human A549 cells assessed as late apoptotic cells at 0.1 uM after 48 hrs by Annexin-V-FITC/propidium iodide staining based flow cytometric method (reference value: 3.4 to 4.76%); type: functional
NCI-H1975 [21] = assay: Induction of apoptosis in human NCI-H1975 cells assessed as early apoptotic cells at 0.1 uM after 48 hrs by Annexin-V-FITC/propidium iodide staining based flow cytometric method (reference value: 2.5 to 3.56%); type: functional
NCI-H1975 [22] = assay: Induction of apoptosis in human NCI-H1975 cells assessed as late apoptotic cells at 0.1 uM after 48 hrs by Annexin-V-FITC/propidium iodide staining based flow cytometric method (reference value: 2.92 to 4.29%); type: functional
NCI-H1299 [23] = assay: Induction of apoptosis in human NCI-H1299 cells assessed as early apoptotic cells at 0.1 uM after 48 hrs by Annexin-V-FITC/propidium iodide staining based flow cytometric method (reference value: 1.91%); type: functional
NCI-H1299 [24] = assay: Induction of apoptosis in human NCI-H1299 cells assessed as late apoptotic cells at 0.1 uM after 48 hrs by Annexin-V-FITC/propidium iodide staining based flow cytometric method (reference value: 2.69%); type: functional

SMILES	IC50 (A549 [1]) [nM]	IC50 (NCI-H1975 [2]) [nM]	IC50 (NCI-H1299 [3]) [nM]	also measured
COC(=O)/C=C1\CC[C@H]2[C@@H]([C@@H](O)C(=O)[C@@H]3[C@]2(C)CCC[C@]3(C)C(=O)OC)[C@H]1C	> 10000	> 10000	> 10000	–
COC(=O)[C@@]1(C)CCC[C@@]2(C)[C@H]1[C@@H](O)C(=O)[C@H]1[C@@H](C)/C(=C/C(=O)OCCN(C)C)CC[C@@H]12	4800	5900	3800	–
CNCCOC(=O)/C=C1\CC[C@H]2[C@@H]([C@@H](O)C(=O)[C@@H]3[C@]2(C)CCC[C@]3(C)C(=O)OC)[C@H]1C	900	1000	1200	–
CNCCOC(=O)/C=C1\CC[C@H]2[C@@H](C(=O)[C@H](O)[C@@H]3[C@]2(C)CCC[C@]3(C)C(=O)OC)[C@H]1C	2100	3300	1500	–
COC(=O)/C=C1\CC[C@H]2[C@@H](C(=O)C[C@@H]3[C@]2(C)CC[C@H](OC(C)=O)[C@]3(C)C(=O)OC)[C@H]1C	> 10000	> 10000	> 10000	–
COC(=O)[C@@]1(C)CCC[C@@]2(C)[C@H]1C[C@H](O)[C@H]1[C@@H](C)/C(=C/C(=O)OCCN(C)C)CC[C@@H]12	3100	2600	2400	–
C/C=C(\C)C(=O)O[C@H]1CC[C@@]2(C)[C@@H]([C@@H](O)C(=O)[C@H]3[C@@H](C)/C(=C/C(=O)OC)CC[C@@H]32)[C@@]1(C)C(=O)OC	> 10000	> 10000	> 10000	–
COC(=O)/C=C1\CC[C@H]2[C@@H](C(=O)[C@H](O)[C@@H]3[C@]2(C)CCC[C@]3(C)C(=O)OC)[C@H]1C	> 10000	> 10000	> 10000	–
COC(=O)[C@@]1(C)CCC[C@@]2(C)[C@H]1C(=O)[C@H](O)[C@H]1[C@@H](C)/C(=C/C(=O)OCCN(C)C)CC[C@@H]12	> 10000	> 10000	> 10000	–
C/C=C(\C)C(=O)O[C@H]1CC[C@@]2(C)[C@@H](CC(=O)[C@H]3[C@@H](C)/C(=C/C(=O)OCCNC)CC[C@@H]32)[C@@]1(C)C(=O)OC	500	400	900	Activity (A549 [4]): 1.87%; Activity (A549 [5]): 3.96%; Activity (A549 [6]): 7.27%; Activity (A549 [7]): 12.24%; Activity (NCI-H1975 [8]): 2.14%; Activity (NCI-H1975 [9]): 3.02%; Activity (NCI-H1975 [10]): 5.2%; Activity (NCI-H1975 [11]): 7.56%; Activity (NCI-H1299 [12]): 4.52%; Activity (NCI-H1299 [13]): 3.24%; Activity (NCI-H1299 [14]): 16.48%; Activity (NCI-H1299 [15]): 8.14%; Activity (A549 [16]): Dose-dependent effect; Activity (NCI-H1975 [17]): Dose-dependent effect; Activity (NCI-H1299 [18]): Dose-dependent effect
CC[C@@]1(O)C(=O)OCc2c1cc1n(c2=O)Cc2cc3ccccc3nc2-1 [CAMPTOTHECIN]	700	1200	800	Activity (A549 [4]): 20.33%; Activity (A549 [5]): 14.14%; Activity (NCI-H1975 [8]): 7.9%; Activity (NCI-H1975 [9]): 31.47%; Activity (NCI-H1299 [12]): 13.16%; Activity (NCI-H1299 [13]): 9.44%; Activity (A549 [19]): 14.17%; Activity (A549 [20]): 10.25%; Activity (NCI-H1975 [21]): 5.54%; Activity (NCI-H1975 [22]): 6.73%; Activity (NCI-H1299 [23]): 13.04%; Activity (NCI-H1299 [24]): 5.22%; Activity (A549 [16]): Dose-dependent effect; Activity (NCI-H1975 [17]): Dose-dependent effect; Activity (NCI-H1299 [18]): Dose-dependent effect
COC(=O)CC1=CC[C@H]2[C@@H](C(=O)[C@H](O)[C@@H]3[C@]2(C)CCC[C@]3(C)C(=O)OC)[C@H]1C	> 10000	> 10000	> 10000	–
COC(=O)[C@@]1(C)CCC[C@@]2(C)[C@H]1CC(=O)[C@H]1[C@@H](C)/C(=C/C(=O)OCCN(C)C)CC[C@@H]12	3400	2100	1900	–
C/C=C(\C)C(=O)O[C@H]1CC[C@@]2(C)[C@@H](C(=O)[C@H](O)[C@H]3[C@@H](C)/C(=C/C(=O)OCCNC)CC[C@@H]32)[C@@]1(C)C(=O)OC	1400	1100	1200	–
